Among the data in PubChem BioAssay (NCI) are GI50 and TGI values, retold here.

Test systems include PC-3 prostate; UACC-62 melanoma; OVCAR-3 ovarian; SNB-75 CNS; MOLT-4 leukemia; M14 melanoma; MDA-MB-231 breast; EKVX NSCLC; CAKI-1 renal; MALME-3M melanoma.
Holding throughout (test): NCI tumour cell line growth inhibition, 48 h

Structures are written as SMILES. Values joined by “and” are separate entries in the source; they are usually repeats but may differ in a detail not shown here. Equal entries are not always repeated.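 Values below derive from 48-hour exposures of cells grown in 96-well plates, with endpoints linearly interpolated between the two concentrations bracketing the appropriate inhibition level. GI50 = concentration required for 50% inhibition of growth. TGI denotes the concentration required for complete inhibition of growth.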

Consider `COc1cccc2c1C(=O)c1c(O)c3c(c(O)c1C2=O)CC(O)(C(C)=O)CC3OC1CC(N)C(O)C(C)O1` (stereo unspecified), for which the GI50 in the assay on PC-3 prostate was 0.0336 µg/mL; in the assay on UACC-62 melanoma, 0.0157 µg/mL; in the assay with OVCAR-3 ovarian, 0.0426 µg/mL; with SNB-75 CNS, 0.0256 µg/mL; in the assay on M14 melanoma it was 0.0403 µg/mL; with MDA-MB-231 breast, 0.0409 µg/mL. For the same compound, the GI50 with EKVX NSCLC is 0.191 µg/mL; in the assay with MALME-3M melanoma it was 0.0663 µg/mL. The TGI in the assay with PC-3 prostate turned out to be 0.545 µg/mL; in the assay with UACC-62 melanoma, 0.0734 µg/mL; with OVCAR-3 ovarian, 0.958 µg/mL; in the assay on SNB-75 CNS, 0.138 µg/mL; in the assay with MOLT-4 leukemia, 0.019 µg/mL; with M14 melanoma, 0.705 µg/mL. The TGI amounted to 0.59 µg/mL in the assay with MDA-MB-231 breast, 2.66 µg/mL with EKVX NSCLC, 0.015 µg/mL in the assay on CAKI-1 renal and 0.356 µg/mL in the assay with MALME-3M melanoma.

For `Cc1c2cnccc2c(C)c2c1c1cc(C3OCCCO3)ccc1n2C`, the GI50 was 402 nM with PC-3 prostate; 197 nM in the assay with UACC-62 melanoma; 419 nM in the assay with OVCAR-3 ovarian; 257 nM in the assay with SNB-75 CNS; 332 nM in the assay with MOLT-4 leukemia; 317 nM with M14 melanoma. For the same compound, the GI50 is 322 nM in the assay on MDA-MB-231 breast, 451 nM with EKVX NSCLC, 314 nM with CAKI-1 renal and 290 nM in the assay on MALME-3M melanoma. The TGI with PC-3 prostate stood at 2240 nM; in the assay on UACC-62 melanoma, 747 nM; in the assay with OVCAR-3 ovarian, 2000 nM; with SNB-75 CNS, 1370 nM; in the assay on MOLT-4 leukemia, 1740 nM; in the assay with M14 melanoma it was 1160 nM. Further, the TGI with MDA-MB-231 breast was found to be 1800 nM; with EKVX NSCLC, 2560 nM; with CAKI-1 renal it was 3450 nM; with MALME-3M melanoma, 1120 nM.

For the compound `CN(C)CCCOc1ccccc1NC1=C(Cl)C(=O)C(Nc2ccccc2OCCCN(C)C)=C(Cl)C1=O`, the GI50 in the assay on PC-3 prostate is 696 nM; with UACC-62 melanoma, 1580 nM; in the assay on OVCAR-3 ovarian, 172 nM; with SNB-75 CNS it was 1620 nM; in the assay with MOLT-4 leukemia, 223 nM; in the assay with M14 melanoma it was 1600 nM. Besides, the GI50 is 511 nM with MDA-MB-231 breast, 693 nM in the assay on EKVX NSCLC, 1070 nM in the assay on CAKI-1 renal and 923 nM with MALME-3M melanoma. Also, the TGI in the assay on PC-3 prostate was determined as 2190 nM; with UACC-62 melanoma it was 3050 nM; with OVCAR-3 ovarian, 319 nM; with SNB-75 CNS, 3020 nM; in the assay on MOLT-4 leukemia, 578 nM; in the assay with M14 melanoma it was 3160 nM. Further, the TGI was found to be 1400 nM with MDA-MB-231 breast, 1970 nM in the assay on EKVX NSCLC, 2270 nM in the assay with CAKI-1 renal and 2430 nM with MALME-3M melanoma.

Consider `O=C(O)CSCc1cccc2ccccc12`, for which the TGI with PC-3 prostate, in the assay with UACC-62 melanoma, in the assay with OVCAR-3 ovarian, with SNB-75 CNS, in the assay with MOLT-4 leukemia and in the assay on M14 melanoma was over 100000 nM in each case. Further, the TGI with MDA-MB-231 breast, in the assay on EKVX NSCLC, with CAKI-1 renal and in the assay on MALME-3M melanoma was over 100000 nM each time.

With `CNC(=O)c1cc(COc2nnc(Nc3ccc(Cl)cc3)c3ccoc23)ccn1`, the GI50 is 9390 nM and > 10000 nM in the assay with PC-3 prostate; 6300 nM and > 10000 nM with UACC-62 melanoma; 11100 nM and > 10000 nM with OVCAR-3 ovarian; 769 nM and 2780 nM in the assay with SNB-75 CNS; 22600 nM and > 10000 nM in the assay with MOLT-4 leukemia; 15700 nM and > 10000 nM with M14 melanoma. Moreover, the GI50 in the assay with MDA-MB-231 breast is 3430 nM and > 10000 nM; with EKVX NSCLC, 10600 nM and > 10000 nM; in the assay with CAKI-1 renal it was 3460 nM and > 10000 nM; in the assay with MALME-3M melanoma, 4110 nM and > 10000 nM. The TGI with PC-3 prostate was over 57700 nM; in the assay with UACC-62 melanoma, 30300 nM and > 10000 nM; with OVCAR-3 ovarian it was 26400 nM and > 10000 nM; with SNB-75 CNS it was 4710 nM and > 10000 nM; in the assay with MOLT-4 leukemia it was over 81300 nM; with M14 melanoma, 54900 nM and > 10000 nM. Moreover, the TGI with MDA-MB-231 breast was 13800 nM and > 10000 nM; in the assay with EKVX NSCLC, 28300 nM and > 10000 nM; with CAKI-1 renal, 19700 nM and > 10000 nM; in the assay on MALME-3M melanoma it was 17200 nM and > 10000 nM.

For the compound `COc1cc(C(=O)OCCCCCCCCCCC[P+](c2ccccc2)(c2ccccc2)c2ccccc2)ccc1O`, the GI50 in the assay on UACC-62 melanoma is 768 nM; with MOLT-4 leukemia, 557 nM; in the assay with M14 melanoma, 349 nM; in the assay on MDA-MB-231 breast, 301 nM; with CAKI-1 renal it was 1640 nM. In addition, the TGI with UACC-62 melanoma came out at 2440 nM; in the assay on MOLT-4 leukemia, 4310 nM; with M14 melanoma it was 1450 nM; in the assay with MDA-MB-231 breast, 1160 nM; with CAKI-1 renal it was 3180 nM.

Consider `COc1cccc([C@H]2CC(=O)c3cc4c(cc3N2)OCO4)c1`, for which the GI50 was 92.7 nM in the assay on PC-3 prostate; 22.6 nM in the assay on UACC-62 melanoma; 41.5 nM in the assay with OVCAR-3 ovarian; 31.6 nM with MOLT-4 leukemia; 86.4 nM with M14 melanoma; 716 nM in the assay with MDA-MB-231 breast. Besides, the GI50 in the assay with CAKI-1 renal was 151 nM. Further, the TGI was over 100000 nM with PC-3 prostate; 96.5 nM in the assay with UACC-62 melanoma; over 100000 nM in the assay on OVCAR-3 ovarian; over 100000 nM in the assay with SNB-75 CNS; 82.1 nM in the assay on MOLT-4 leukemia; over 100000 nM with MDA-MB-231 breast. Besides, in the assay with CAKI-1 renal, the TGI was over 100000 nM.

Consider `COc1cc(-c2nn3c(/C=C4/C(=O)Nc5ccccc54)c(-c4ccc(C)cc4)nc3s2)cc(OC)c1OC`, for which the GI50 is 81100 nM in the assay with PC-3 prostate; 5470 nM with UACC-62 melanoma; 2900 nM with OVCAR-3 ovarian; 552 nM in the assay with SNB-75 CNS; 3510 nM in the assay with MDA-MB-231 breast; 15400 nM in the assay with CAKI-1 renal. For the same compound, in the assay on MALME-3M melanoma, the GI50 is 765 nM. The TGI in the assay with PC-3 prostate is over 100000 nM; with UACC-62 melanoma, over 100000 nM; with OVCAR-3 ovarian, over 100000 nM; in the assay with SNB-75 CNS it was 10700 nM; in the assay with MDA-MB-231 breast it was 20800 nM; with CAKI-1 renal, over 100000 nM. In the assay with MALME-3M melanoma, this compound had a TGI of 4780 nM.
